# Source: the supplement of paper PMC10307832
# Tests used:
# Assay in all cases: relative viability (nuclei count vs DMSO), 5 days (fraction); higher = more cells survive
# Irinotecan + Decitabine = compound: CCc1c2c(nc3ccc(OC(=O)N4CCC(N5CCCCC5)CC4)cc13)-c1cc3c(c(=O)n1C2)COC(=O)[C@]3(O)CC [Irinotecan] + Nc1ncn([C@H]2C[C@H](O)[C@@H](CO)O2)c(=O)n1 [Decitabine] (partner 2 µM)
# Outline: (§1)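 Relative viability was taken as the ratio of nuclei in treated wells to nuclei in vehicle wells. Lung cancer cell lines in 1536-well plates received compounds by pin tool one day after seeding, either one drug alone or a fixed anchor-drug dose plus five library-drug doses (not always all listed) in √10 steps. Nuclei were counted on 4× images after 5 days of treatment, and values are medians of duplicate plates.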
# MK-8033 + Pictilisib = compound: Cn1cc(-c2cnc3ccc4ccc(CS(=O)(=O)NCc5ccccn5)cc4c(=O)c3c2)cn1 [MK-8033] + CS(=O)(=O)N1CCN(Cc2cc3nc(-c4cccc5[nH]ncc45)nc(N4CCOCC4)c3s2)CC1 [Pictilisib] (partner 1 µM)
# Outline: as §1
# MK-8033 + Phenformin = compound: Cn1cc(-c2cnc3ccc4ccc(CS(=O)(=O)NCc5ccccn5)cc4c(=O)c3c2)cn1 [MK-8033] + N=C(N)NC(=N)NCCc1ccccc1 [Phenformin] (partner 250 µM)
# Outline: as §1
# RU-SKI 43 + Alpelisib = compound: CC[C@@H](C)CNCC(=O)N1CCC2=C([C@@H]1COC3=CC=CC(=C3)C)C=CS2 [RU-SKI 43] + Cc1nc(NC(=O)N2CCC[C@H]2C(N)=O)sc1-c1ccnc(C(C)(C)C(F)(F)F)c1 [Alpelisib] (partner 2 µM)
# Outline: as §1
Cell Line,relative viability (Irinotecan + Decitabine; first compound 0.6325 µM),relative viability (Irinotecan + Decitabine; first compound 2 µM),relative viability (Irinotecan + Decitabine; first compound 6.325 µM),relative viability (Irinotecan + Decitabine; first compound 20 µM),relative viability (MK-8033 + Pictilisib; first compound 0.02 µM),relative viability (MK-8033 + Pictilisib; first compound 0.06325 µM),relative viability (MK-8033 + Pictilisib; first compound 0.2 µM),relative viability (MK-8033 + Pictilisib; first compound 0.6325 µM),relative viability (MK-8033 + Pictilisib; first compound 2 µM),relative viability (MK-8033 + Phenformin; first compound 0.02 µM),relative viability (MK-8033 + Phenformin; first compound 0.06325 µM),relative viability (MK-8033 + Phenformin; first compound 0.2 µM),relative viability (MK-8033 + Phenformin; first compound 0.6325 µM),relative viability (MK-8033 + Phenformin; first compound 2 µM),relative viability (RU-SKI 43 + Alpelisib; first compound 0.1 µM),relative viability (RU-SKI 43 + Alpelisib; first compound 0.3162 µM),relative viability (RU-SKI 43 + Alpelisib; first compound 1 µM),relative viability (RU-SKI 43 + Alpelisib; first compound 3.162 µM),relative viability (RU-SKI 43 + Alpelisib; first compound 10 µM)
NCI-H3122,0.232,0.163,0.117,0.127,0.676,0.563,0.602,0.66,0.628,0.346,0.347,0.347,0.368,0.354,0.771,0.7,0.743,0.935,0.734
SW 1573,0.445,0.511,0.173,0.0927,0.55,0.414,0.462,0.463,0.42,0.374,0.311,0.367,0.326,0.249,0.884,0.937,0.695,0.793,0.637
HCC-15,0.363,0.45,0.381,0.14,0.829,0.632,0.698,0.767,0.754,0.511,0.467,0.421,0.45,0.482,0.96,1.02,0.963,0.931,0.844
NCI-H1666,0.551,0.62,0.547,0.545,0.365,0.31,0.459,0.422,0.481,0.588,0.598,0.548,0.612,0.527,1.09,1.09,0.966,0.789,0.582
NCI-H460,0.353,0.317,0.106,0.0426,0.432,0.285,0.395,0.253,0.402,0.543,0.486,0.506,0.542,0.491,0.44,0.657,0.6,0.5,0.36
NCI-H1792,0.405,0.522,0.287,0.228,0.256,0.188,0.346,0.269,0.212,0.346,0.267,,0.282,0.225,0.574,1.1,0.736,0.886,0.735
NCI-H2087,0.146,0.218,0.196,0.159,0.912,0.814,0.737,0.994,0.692,0.5,0.434,0.417,0.435,0.386,1,1.4,1.12,1.11,0.788
EKVX,,0.27,0.262,0.229,0.433,0.409,0.442,0.438,0.476,0.222,0.211,0.238,0.22,0.254,0.79,0.949,0.828,0.946,0.839
NCI-H1355,,0.27,0.19,0.242,0.424,0.302,0.442,0.393,0.442,0.444,0.401,0.424,0.435,0.432,0.826,0.877,0.924,0.956,0.921
NCI-H661,0.532,0.546,0.424,0.168,0.447,,0.394,0.454,0.423,0.26,0.254,0.27,0.267,0.292,0.647,0.668,0.846,0.464,0.404
PC-3 [JPC-3],0.805,0.927,0.655,0.365,0.666,,0.655,0.56,0.762,0.482,0.426,0.469,0.475,0.503,0.988,1.03,1.11,1.08,0.998
NCI-H2085,0.536,0.391,0.38,0.382,0.417,0.369,0.532,0.57,0.395,0.736,0.554,0.694,0.703,0.674,0.93,1.02,1.09,1.01,0.845
NCI-H1993,,0.581,0.542,0.6,0.842,0.75,0.669,1,0.763,0.591,0.469,0.497,0.537,0.488,0.655,0.678,0.702,0.701,0.66
LK-2,0.285,0.379,0.226,0.216,0.629,0.452,0.535,0.621,0.606,0.708,,0.326,0.437,0.305,1.27,1.41,1.18,,1.24
LC-2-ad,0.532,0.355,0.338,0.262,0.43,0.461,0.453,0.572,0.486,0.605,0.515,,0.592,0.589,0.836,1.02,0.932,0.924,0.779
NCI-H596,1.06,0.842,0.85,1.49,0.352,0.319,0.379,0.384,0.397,0.854,0.662,0.741,0.657,0.627,0.395,0.481,0.508,0.6,0.482
